The source of these data is patent US20220195059A1, “Rank Pathway Inhibitors in Combination with CDK Inhibitors” (INSTITUTO DE MEDICINA MOLECULAR JOÃO LOBO ANTUNES, priority 2019, published 2022).

Structures are written as SMILES.

This data set relates to MDA-MB-231 GFP+Luc+ xenografts. As to the kind of experiment: Pilot study, orthotopic TNBC xenografts. The data set is classed as in vivo, NSG mice. Particulars: measured throughout the experiment; between groups. As for the experimental part:
A pilot study to test the sensitivity of TNBC xenografts to CDK4/6 inhibitors (palbociclib) in combination with RANK pathway blockage (OPG-Fc) was performed. […] As shown in this figure, body weight was not different between groups. The proliferation index of tumors as measured by the quantification of Ki67-positive cells and p-pRB positive cells is shown in FIG. 13D. FIG. 13C is a series of images of Ki67-stained or p-pRb stained cells.

As for `CC(=O)c1c(C)c2cnc(Nc3ccc(N4CCNCC4)cn3)nc2n(C2CCCC2)c1=O` [palbociclib], the body weight entry is “not different”.
